How the values were obtained:
[1] = test system: lymph nodes (popliteal and iliac); settings: dog, in vivo
Procedure: Four iodinated organic carbonates prepared as described hereinabove were evaluated for use as lymphographic agents in laboratory dogs.
Six adult mongrel dogs, preconditioned for at least two weeks at the Lafayette Pharmacal, Inc. facilities, were used for the study. The dogs were removed from food the evening prior to dosing. Each animal was first anesthetized with Rompun and sodium pentobarbital and intubated to assist in breathing. A standard lymphogram was then performed on one rear leg only of each animal using known laboratory procedures. Specifically, a blue dye was first injected between the toes of the right hind limb to locate the lymph ducts. A single duct was then disected out and cannulated. One of the six compounds was then selected and a syringe pump used to inject the test compound into the duct at a constant rate. In this regard, the dogs were injected with an effective amount of one (1) cc of test substance per 20 lbs. of body weight. The iodinated phenyl compounds were brought to about body temperature prior to the injecting and then were injected while at about the body temperature.
Radiographs were then taken of each animal after confirming the location of the injected bolus by fluoroscopy means. The animals were given atropine sulfate and observations made while they were allowed to recover from the anesthetic unassisted.
The animals were then returned to their cages and radiographs were taken at the end of 24 hours, 3 days and 1, 2, 3, 4 and 6 weeks to determine the radiographic clearance rate of each tested compound. Daily urine samples were also collected and subjected to fluorescent exitation analysis to determine the urinary clearance rate for each compound. Six weeks after the initial lymphogram, the animals were sacrificed and the popliteal and iliac nodes on both sides removed. The nodes from the dosed side and undosed side of each animal were then compared histopathologically.

albino mice [2] = test: Initial toxicity screen: Approximate Lethal Dose by intraperitoneal injection (Deichmann and LeBlanc); format: in vivo; settings: for Approximate Lethal Dose (ALD): intraperitoneal, albino mice, neat liquid or suspension, footnote (b): largest dose administered (e, f, i, p, q)
Procedure: As an initial toxicity screen for the compounds shown hereinabove, the neat liquid or suspension of the material was injected into the peritoneal cavity of albino mice and the Approximate Lethal Dose (ALD) determined using the method of Deichmann and LeBlanc (W. B. Deichmann and T. J. LeBlanc, J. Ind. Hyg., 25, 415 (1943)) the results of which are presented in Table II, as set forth hereinafter.
Approximate Interperitoneal Toxicity in Mice
Approximate Lethal Dose Ml/Kg

brain and spinal cord = test: Suboccipital study of laboratory animals (neurotoxicity, brain and spinal cord histopathology); format: in vivo, laboratory rats; settings: rat; for Overall / histopathological response: 0.1 ml suboccipital injection, 1 to 14 weeks; for Difficulty with righting responses / Recovery from the injection procedure: suboccipital injection; for Recovery from the injection procedure: as a group; for Lipid puddle formation: compared with air and Pantopaque
Procedure: Six iodinated phenyl carbonate compounds prepared as described above, as well as air and Pantopaque, a known prior art radiographic compound, were injected suboccipitally into separate groups of 30 laboratory rats. The six iodinated compounds under examination were p-iodobenzyl-n-hexyl carbonate, p-iodobenzyl-n-octyl carbonate, p-iodobenzyl-2-octyl carbonate, 2-ethylhexyl-p-iodobenzyl carbonate, n-hexyl-3-(p-iodophenyl)propyl carbonate and n-hexyl-2-(p-iodobenzyl)butyl carbonate. Six rats from each injected group were then sacrificed at periodic intervals and the brain and spinal cord removed for histopathological evaluation. By comparing the results of air and Pantopaque with the results using the iodinated compounds, an evaluation of their relative neurotoxicity was obtained.
The groups of rats were first subjected to standard quarantine procedure at the Lafayette Pharmacol, Inc. facilities for at least two weeks prior to dosing. About 18 hours prior to dosing, food was withdrawn but water was allowed ad lib. During injection, each animal was anesthetized in an ether chamber and the back of the neck closely clipped. After placing the animal on a board with the head declined at 45°, a puncture was made just at the base of the atlas and 0.1 ml. of the selected test substance was injected. Radiographs were then taken immediately after dosing to confirm the intrathecal location of the injected bolus, and the animals were returned to their cages for observation.
One group of six animals for each tested substance was then sacrificed at the following elapsed times post injection: 1 week; 2 weeks; 4 weeks; 8 weeks and 14 weeks. At sacrifice, the animal were perfused with saline and formalin. Each animal was again radiographed and the brain and spinal cord then removed and stored for histopathological study.

albino mice [3] = test: Initial toxicity screen: Approximate Lethal Dose by intraperitoneal injection (Deichmann and LeBlanc); format: in vivo; settings: 20% w/v in Sesame oil, for r also footnote (b): largest dose administered
lung [4] = test: Bronchography study of laboratory animals (insuflation of a caudal lobe of one lung); settings: dog, dosed lobe, 2 weeks
Procedure: (§1) Food was withdrawn from each animal 12 hours prior to dosing with water given ad lib. The animals were then first anesthetized with sodium pentobarbital and maintained on halothane. Each animal was then intubated with a tracheal tube and scouting X-ray films were taken to confirm its position. Next, a stainless steel guide wire was passed through a polypropylene tube, i.e., insuflation tube, and this combination was passed into the animal's lung. The position of this guide wire was then confirmed by fluoroscopy and the guide wire then removed, thus leaving the insulfation tube in place.
(§2) In this regard, the amount of selected iodinated phenyl carbonate compound varied for each animal according to weight, with 6 cc being given to the heaviest test dog. Oxygen at 20 psi was then used to insuflate a caudal lobe of one lung of each animal while monitoring with fluoroscopy. Lateral and direct view radiographs were then taken. […] Food was then given after 12 hours.
(§3) At 2 weeks, the animals were then anesthetized and radiographs taken while the lungs were expanded by air insuflation. The animals were then sacrificed by injection of saline and the dosed lobe of each animal examined histopathologically and compared with the corresponding undosed lobe.

lung [5] = settings: dog, in vivo
Procedure: as §1, §2, §3

`CCCCOC(=O)SCc1ccc(I)cc1` [S-(p-iodobenzyl)-n-butyl thiolcarbonate] was tested, and the “Histopathology of dosed nodes” value [1] was “mild granulomatous lymphadenitis or lipoidal lymphadenopathy”, the “Overall result after six weeks” value [1] was “excellent overall results with only minor histopathological responses” and the “Rate of clearance and elimination (order, fastest to slowest)” value (from here on “Rate of clearance and elimination”) [1] was “almost the same”. The “Time to radiographically clear” value [1] was ≤ 6 weeks.

For `CC(C)COC(=O)OCc1ccc(I)cc1` [a, p-Iodobenzyl Isobutyl Carbonate], the “Approximate Lethal Dose (ALD)” value (albino mice [2]) was 3 mL/kg.

For `CCCCCOC(=O)OCc1ccc(I)cc1` [b, n-Amyl-p-Iodobenzyl Carbonate], the “Approximate Lethal Dose (ALD)” value (albino mice [2]) was 3 mL/kg.

With `CCCCCCOC(=O)OCc1ccc(I)cc1` [c, n-Hexyl-p-Iodobenzyl Carbonate] the “Overall / histopathological response” value (brain and spinal cord) was “Relatively more severe histopathological responses”, the “Difficulty with righting responses” value (brain and spinal cord) was “more animals exhibiting righting difficulty” and the “Recovery from the injection procedure” value (brain and spinal cord) was “taking longer to recover”. For the same compound, the “Approximate Lethal Dose (ALD)” value (albino mice [2]) was 7 mL/kg, the “Rate of clearance and elimination” value [1] was “p-iodobenzyl-n-butyl carbonate, p-iodobenzyl-n-hexyl carbonate, p-iodobenzyl-n-octyl carbonate and ethiodol” and the “Time to radiographically clear” value [1] was ≤ 6 weeks.

For `CC(C)CC(C)OC(=O)OCc1ccc(I)cc1` (stereo not drawn) [d, p-Iodobenzyl-4-methyl-2-Pentyl Carbonate], the “Approximate Lethal Dose (ALD)” value (albino mice [2]) was 7 mL/kg.

In the case of `CCCCCCCCOC(=O)OCc1ccc(I)cc1` [e, n-Octyl-p-Iodobenzyl Carbonate], the “Overall / histopathological response” value (brain and spinal cord) is reported as “overall responses close to air and Pantopaque approximating normal”, the Lipid puddle formation (brain and spinal cord) is reported as “slightly more lipid puddle formation” and the “Difficulty with righting responses” value (brain and spinal cord) is reported as “an occasional animal showing some difficulty with righting responses”. For the same compound, the “Approximate Lethal Dose (ALD)” value (albino mice [2]) was 15 mL/kg, the “Histopathology of dosed nodes” value [1] was “mild granulomatous lymphadenitis or lipoidal lymphadenopathy” and the “Overall result after six weeks” value [1] was “excellent overall results with only minor histopathological responses”. For the same compound, the “Radiographic state of iliac node” value [1] was “small droplets could be seen”, the “Radiographic state of popliteal node” value [1] was “clear” and the “Rate of clearance and elimination” value [1] was “p-iodobenzyl-n-hexyl carbonate, p-iodobenzyl-n-octyl carbonate and ethiodol”.

With `CCCCCCCCCCOC(=O)OCc1ccc(I)cc1` [f, n-Decyl-p-Iodobenzyl Carbonate] the “Approximate Lethal Dose (ALD)” value (albino mice [2]) was 10.5 mL/kg.

With `CCCCC(CC)COC(=O)OCc1ccc(I)cc1` (stereo not drawn) [g, 2-Ethylhexyl-p-Iodobenzyl Carbonate] the “Overall / histopathological response” value (brain and spinal cord) was “Relatively more severe histopathological responses”, the “Difficulty with righting responses” value (brain and spinal cord) was “more animals exhibiting righting difficulty” and the “Recovery from the injection procedure” value (brain and spinal cord) was “taking longer to recover”. The “Approximate Lethal Dose (ALD)” value (albino mice [2]) was 15 mL/kg.

With `CCCC(CC)OC(=O)OCc1ccc(I)cc1` (stereo not drawn) [h, 3-Hexyl-p-Iodobenzyl Carbonate] the “Approximate Lethal Dose (ALD)” value (albino mice [2]) was 3 mL/kg.

`CCCCCCC(C)OC(=O)OCc1ccc(I)cc1` (stereo not drawn) [i, 2-Octyl-p-Iodobenzyl Carbonate] was tested, and the “Overall / histopathological response” value (brain and spinal cord) was “Relatively more severe histopathological responses”, the “Difficulty with righting responses” value (brain and spinal cord) was “more animals exhibiting righting difficulty” and the “Recovery from the injection procedure” value (brain and spinal cord) was “taking longer to recover”. For the same compound, the “Approximate Lethal Dose (ALD)” value (albino mice [2]) was 15 mL/kg.

`CCCCCCOC(=O)Oc1ccc(I)cc1` [j, n-Hexyl-p-Iodophenyl Carbonate] was tested, and the “Approximate Lethal Dose (ALD)” value (albino mice [2]) was 7 mL/kg.

With `CCCCCCCCOC(=O)Oc1ccc(I)cc1` [k, n-Octyl-p-Iodphenyl Carbonate] the “Approximate Lethal Dose (ALD)” value (albino mice [2]) was 7 mL/kg.

In the case of `CCCCCCOC(=O)OC(C)c1ccc(I)cc1` (stereo not drawn) [l, n-Hexyl-p-Iodo-sec-Phenethyl Carbonate], the “Approximate Lethal Dose (ALD)” value (albino mice [2]) is reported as 10.5 mL/kg.

In the case of `CCCCCCOC(=O)OCCc1ccc(I)cc1` [m, n-Hexyl-p-Iodophenethyl Carbonate], the “Approximate Lethal Dose (ALD)” value (albino mice [2]) is reported as 7 mL/kg.

In the case of `CCCCCCOC(=O)OCCCc1ccc(I)cc1` [n, n-Hexyl-3-(p-Iodophenyl)Propyl Carbonate], the “Overall / histopathological response” value (brain and spinal cord) is reported as “Relatively more severe histopathological responses”, the “Difficulty with righting responses” value (brain and spinal cord) is reported as “more animals exhibiting righting difficulty” and the “Recovery from the injection procedure” value (brain and spinal cord) is reported as “taking longer to recover”. The “Approximate Lethal Dose (ALD)” value (albino mice [2]) was 15 mL/kg.

With `CCCCCCOC(=O)OCCC(C)c1ccc(I)cc1` (stereo not drawn) [o, n-Hexyl-3-(p-Iodophenyl)Butyl Carbonate] the “Approximate Lethal Dose (ALD)” value (albino mice [2]) was 7 mL/kg.

With `CCCCCCOC(=O)OCC(CC)Cc1ccc(I)cc1` (stereo not drawn) [p, n-Hexyl-2-(p-Iodobenzyl)Butyl Carbonate] the “Overall / histopathological response” value (brain and spinal cord) was “overall responses close to air and Pantopaque approximating normal”, the Lipid puddle formation (brain and spinal cord) was “slightly more lipid puddle formation” and the “Difficulty with righting responses” value (brain and spinal cord) was “an occasional animal showing some difficulty with righting responses”. The “Approximate Lethal Dose (ALD)” value (albino mice [2]) was “greater than 15 Ml/Kg”.

With `CCOC(=O)OCc1ccc(I)cc1` [p-iodobenzyl ethyl carbonate] the Clearance of nodes [1] was ~3 days, the “Histopathology of dosed nodes” value [1] was “no change in the nodes” and the “Overall result after six weeks” value [1] was “indistinguishable from undosed animals”. For the same compound, the “Rate of clearance and elimination” value [1] was “fastest”.

With `CCCCOC(=O)OCc1ccc(I)cc1` [p-iodobenzyl-n-butyl carbonate] the “Histopathology of dosed nodes” value [1] was “no change in the nodes”, the “Overall result after six weeks” value [1] was “indistinguishable from undosed animals” and the “Rate of clearance and elimination” value [1] was “almost the same”. For the same compound, the “Time to radiographically clear” value [1] was ≤ 6 weeks.

`CCCCCCOC(=O)OCC(CCCC)Cc1ccc(I)cc1` (stereo not drawn) [q, n-Hexyl-2-(p-Iodobenzyl)-n-Hexyl Carbonate] was tested, and the “Approximate Lethal Dose (ALD)” value (albino mice [2]) was “greater than 15 Ml/Kg”.

In the case of `CCCCCCOC(=O)OCc1c(I)cc(I)c(N)c1I` [r, 3-Amino-2,4,6-Triiodobenzyl-n-Hexyl Carbonate], the “Approximate Lethal Dose (ALD)” value (albino mice [3]) is reported as “greater than 11 Ml/Kg”.

`CCCCCCOC(=O)OCc1cc(I)cc(I)c1` [s, 3,5-Diiodobenzyl-n-Hexyl Carbonate] was tested, and the “Approximate Lethal Dose (ALD)” value (albino mice [2]) was 5 mL/kg.

For `CCCCCCCCOC(=O)OCc1cccc(I)c1` [t, m-Iodobenzyl-n-Octyl Carbonate], the “Approximate Lethal Dose (ALD)” value (albino mice [2]) was “greater than 17 Ml/Kg”.

`CCOC(=O)OCc1c(I)cc(I)c(NC(C)=O)c1I` [u, 3-acetamido-(2,4,6-triiodobenzyl)ethyl carbonate] was tested, and the “Approximate Lethal Dose (ALD)” value (albino mice [3]) was “greater than 22 Ml/Kg”, the “Gross lesions related to instillation” value (lung [4]) was “No gross lesions were found that appeared specifically related to instillation of the contrast medium” and the “Histopathological alterations of dosed lobes” value (lung [5]) was “obliterative granulomatous bronchiolitis”. For the same compound, the “Persistence of compound in lung” value (lung [5]) was “some evidence the iodinated phenyl carbonate had persisted and was responsible for this granulomatous bronchiolitis”.

`COC(=O)OC(C)c1ccc(I)cc1` (stereo not drawn) [v, p-Iodo-sec-Phenethyl Methyl Carbonate, reference compound] was tested, and the “Intraperitoneal toxicity (in words)” value (albino mice [2]; compared with the compounds of Table II) was “more toxic” and the “Approximate Lethal Dose (ALD)” value (albino mice [2]) was 1.5 mL/kg.

Source: patent publication US4175544A, “Iodo-aryl carbonates for use in methods in radiography” (Lafayette Pharmacal Inc., priority 1978, dated 1979)
